Measurements from PMC4581252, “Permeability Study of Polyphenols Derived from a Phenolic-Enriched Hibiscus sabdariffa Extract by UHPLC-ESI-UHR-Qq-TOF-MS” (International Journal of Molecular Sciences, 2015).
Blank lines part the entries; values can stand above or below the compound they belong to.

Experiments:
Assay type in all cases: in vitro ADME, human
Caco-2 cell monolayer [1] = assay: Caco-2 permeability of free PEHS extract: compounds detected in transport medium, cytoplasm and membrane; details: free PEHS 2500 μg/mL; for Compound detected in transport medium, Bas-Ap / Compound detected in transport medium, Ap-Bas: receiver chamber; for Compound detected in transport medium, Bas-Ap: basolateral to apical
Description: (§1) One of the aims of this study was to compare the intestinal absorption of HS compounds when the PEHS extract was in a free form or in an encapsulated formulation, using the Caco-2 model system. This model is a well-established in vitro model for the investigation of the intestinal permeability of different compounds or drugs. Prior to the transport studies, the Caco-2 cell monolayer was established and validated. Monolayer integrity and reliability were ensured by measuring the transepithelial electrical resistance (TEER) values, which remained stable during the assay with the experimental conditions assayed. Afterwards, samples from apical and basolateral compartments obtained at different time points and cytoplasmic and membrane fractions of the cell monolayer collected at the end of the assay (see Section 3.3 and Section 3.4) were analyzed by UHPLC-ESI-UHR-Qq-TOF-MS in order to identify which compounds crossed the Caco-2 cell monolayer.
(§2) To assess the potential intestinal absorption of PEHS and pure compounds, experiments were conducted using Caco-2 cells derived from human colorectal adenocarcinoma cells (obtained from the American Type Culture Collection). Cells were cultured in Dulbecco’s Modified Eagle Medium (DMEM) containing 10% (v/v) fetal bovine serum (FBS) and incubated at 37 °C in a humidified 5% CO2 air atmosphere. Cell monolayers were prepared by seeding 5 × 10^5 Caco-2cells/well on a six-well Transwell insert filter. Monolayers were used 19–22 days after seeding. The integrity of each cell monolayer was checked by measuring its transepithelial electrical resistance (TEER) with an epithelial voltohmmeter (EVOM, World Precision Instrument, Sarasota, FL, USA) before and after the experiments. The culture medium was replaced with fresh medium 24 h before the transport experiments. Compounds were added after washing the Caco-2 cell monolayer twice with pre-warmed HBSS medium (pH 7.4), in the apical or in the basolateral side, to evaluate the transport characteristics of the cells. Permeability studies were done by adding the PEHS solution at a concentration of 2500 μg/mL, quercetin at 18.1 μg/mL, quercetin-3-glucoside at 46.4 μg/mL, quercetin-3-glucuronide at 47.8 μg/mL, and N-feruloyltyramine at 31.3 μg/mL, while the receiving chamber contained the corresponding volume of transport medium. Samples were taken at different times (30, 60, 90, 120 min) and stored at −80 °C until their treatment.
(§3) After the permeation study, the Caco-2 cell monolayer was collected and the cells were lysed with three subsequent freezing-thawing cycles followed by bath sonication, of 10 min each step. Then, the samples were centrifuged during 15 min at 14,000 rpm and 4 °C, and the supernatants (cytoplasmic fraction) and the pellets (membranes) were stored at −80 °C.
(§4) The samples collected in the receiving chamber during the permeability assays were centrifuged for 15 min at 12,000 rpm and 4 °C. […] Finally, the samples were stored at −80 °C until the analysis, avoiding possible degradations.
(§5) The cytoplasms and cell membranes collected at the end of the permeability assays were subjected to protein precipitation using methanol, vortex-mixed, kept at −20 °C for 2 h and centrifuged at 12,000 rpm for 15 min at 4 °C. Finally, the supernatants were evaporated in a vacuum concentrator, dissolved in 100 μL of methanol, and then spiked with 10 μg/mL of apigenin, used as an internal standard for their analysis.
For the analysis of the samples, a Dionex Ultimate 3000 UHPLC (Thermo Scientific, Sunnyvale, CA, USA) was used coupled with an ultra-high resolution quadrupole time-of-flight mass spectrometer maXis (UHR-Qq-TOF-MS) from Bruker Daltonik (Bremen, Germany). The chromatographic separation was performed in a Zorbax Eclipse Plus C-18 column (4.6 × 150 mm, 1.8 μm) at a flow rate of 0.3 mL/min using an injection volume of 5 μL.

Caco-2 cell monolayer [2] = assay: Caco-2 permeability of encapsulated (liposome) PEHS extract: compounds detected in transport medium, cytoplasm and membrane; details: encapsulated PEHS 2500 μg/mL; for Compound detected in transport medium, Bas-Ap / Compound detected in transport medium, Ap-Bas: receiver chamber
Description: as §1
Primary aqueous extract was obtained from sun-dried calyces from plants harvested in Senegal, with an approximate plant-to-extract ratio of 5:1 as previously described. The purified PEHS extract was kindly provided by Monteloeder, Inc. (Elche, Alicante, Spain) and was essentially prepared as previously described. The retained phenolic fraction was finally eluted with 95% ethanol and 0.01% trifluoroacetic acid (TFA), rotatory evaporated and freeze-dried. The PEHS encapsulated formulation was performed using empty liposomes, whose final concentration was 2 mM, adding soy phosphatidylcholine to the blend. To permeabilize the liposome membrane ethanol 10% was used. The extract was dissolved in HBSS at the desired concentration (2500 μg/mL), stirred for 10 min, and finally filtered through 0.45 μm three times (PVD filter).
as §2, §3, §4

Caco-2 cell monolayer [3] = assay: Caco-2 permeation of pure compounds related to PEHS (individual permeability assays); details: for Concentration in the receptor chamber, Basolateral-Apical Flux: 30 min (so in the source); for Concentration in the receptor chamber, Basolateral-Apical Flux / Concentration in the receptor chamber, Apical-Basolateral Flux: donor: quercetin 18.1, quercetin-3-glucoside 46.4, quercetin-3-glucuronide 47.8, N-feruloyltyramine 31.3 μg/mL, X ± SD; for Absorption across the Caco-2 intestinal barrier model (in words): pure compounds
Procedure: Standard calibration curves of the compounds under study were prepared using apigenin at a concentration of 10 μg/mL as an internal standard. […] The limits of detection (LODs) and limits of quantification (LOQs) for individual compounds in standard solutions were also calculated as S/N = 3 and S/N = 10, respectively, where S/N is the signal to noise ratio (Table 3). The compound concentrations were subsequently determined using the corrected area of each individual compound (three replicates) and by interpolation in the corresponding calibration curve. Repeatability of the proposed method was measured as the relative standard deviation (RSD, %) in terms of concentration. A mixed solution containing the analytes was injected several times (n = 3) on the same day (intraday precision) and three times on three consecutive days (interday precision, n = 9). Intraday repeatability of the method developed for all the analytes was from 0.11% to 1.93%, whereas the interday repeatability ranged from 0.17% to 2.06%.
as §2, §3
The samples collected in the receiving chamber during the permeability assays were centrifuged for 15 min at 12,000 rpm and 4 °C. The supernatant was spiked with apigenin stock solution, used as an internal standard at a concentration of 10 μg/mL, in order to avoid irreproducibility of results between analyses. Finally, the samples were stored at −80 °C until the analysis, avoiding possible degradations.
as §5
For the analysis of the samples, a Dionex Ultimate 3000 UHPLC (Thermo Scientific, Sunnyvale, CA, USA) was used coupled with an ultra-high resolution quadrupole time-of-flight mass spectrometer maXis (UHR-Qq-TOF-MS) from Bruker Daltonik (Bremen, Germany). […]

[4] = cytoplasmic fraction at end of assay, apical to basolateral
[5] = membrane fraction at end of assay, basolateral to apical
[6] = membrane fraction at end of assay, apical to basolateral

Compound: O=C(/C=C/c1ccc(O)cc1)O[C@@H]1C[C@](O)(C(=O)O)C[C@@H](O)[C@H]1O [Coumaroylquinic acid]
Compound detected in transport medium, Bas-Ap (Caco-2 cell monolayer [1]): +
Compound detected in membrane, Bas-Ap (Caco-2 cell monolayer [2]; [5]): +

Compound: COC(=O)C1OC(=O)CC1(O)C(=O)OC (stereo not drawn) [Hibiscus acid dimethylesther]
Compound detected in cytoplasm, Ap-Bas (Caco-2 cell monolayer [2]; [4]): +
Compound detected in membrane, Ap-Bas (Caco-2 cell monolayer [2]; [6]): +
Compound detected in membrane, Bas-Ap (Caco-2 cell monolayer [2]; [5]): +

Compound: O=C(/C=C/c1ccc(O)c(O)c1)O[C@H]1[C@H](O)C[C@](O)(C(=O)O)C[C@H]1O [Cryptochlorogenic acid]
Compound detected in transport medium, Ap-Bas (Caco-2 cell monolayer [1]; apical to basolateral): +
Compound detected in transport medium, Bas-Ap (Caco-2 cell monolayer [1]): +
Compound detected in cytoplasm, Ap-Bas (Caco-2 cell monolayer [2]; [4]): +
Compound detected in cytoplasm, Bas-Ap (Caco-2 cell monolayer [2]; cytoplasmic fraction at end of assay, basolateral to apical): +
Compound detected in transport medium, Ap-Bas (Caco-2 cell monolayer [2]; apical to basolateral): +
Compound detected in transport medium, Bas-Ap (Caco-2 cell monolayer [2]; basolateral to apical): +

Compound: O=C1C[C@](O)(C(=O)O)[C@@H](C(=O)O)O1 [Hibiscus acid]
Compound detected in cytoplasm, Ap-Bas (Caco-2 cell monolayer [2]; [4]): +

Compound: O=C(/C=C/c1ccc(O)c(O)c1)O[C@@H]1CC(C(=O)O)=C[C@@H](O)[C@H]1O [5-O-caffeoylshikimic acid]
Compound detected in transport medium, Ap-Bas (Caco-2 cell monolayer [1]; apical to basolateral): +
Compound detected in transport medium, Bas-Ap (Caco-2 cell monolayer [1]): +
Compound detected in transport medium, Bas-Ap (Caco-2 cell monolayer [2]; basolateral to apical): +

Compound: O=c1c(O[C@@H]2O[C@H](CO)[C@@H](O)[C@H](O)[C@H]2O)c(-c2ccc(O)c(O)c2)oc2cc(O)cc(O)c12 [Quercetin-3-glucoside]
Concentration in the receptor chamber, Basolateral-Apical Flux (Caco-2 cell monolayer [3]): <LOQ
Concentration in the receptor chamber, Apical-Basolateral Flux (Caco-2 cell monolayer [3]; 30 min): <LOQ
Concentration in the receptor chamber, Apical-Basolateral Flux (Caco-2 cell monolayer [3]; 60 min): <LOQ
Concentration in the receptor chamber, Apical-Basolateral Flux (Caco-2 cell monolayer [3]; 90 min): <LOQ
Concentration in the receptor chamber, Apical-Basolateral Flux (Caco-2 cell monolayer [3]; 120 min): 0.47 ± 0.03 µg/mL
Absorption across the Caco-2 intestinal barrier model (in words) (Caco-2 cell monolayer [3]): lesser extent

More lines, now with the values ahead:

Compound detected in transport medium, Bas-Ap (Caco-2 cell monolayer [1]): +
Compound detected in cytoplasm, Ap-Bas (Caco-2 cell monolayer [2]; [4]): +
Compound detected in transport medium, Bas-Ap (Caco-2 cell monolayer [2]; basolateral to apical): +
Compound: COC(=O)c1cc(O)c(O)c(OC(=O)c2cc(O)c(O)c(O)c2)c1 [Methyldigallate, Methyl digallate]

Concentration in the receptor chamber, Basolateral-Apical Flux (Caco-2 cell monolayer [3]): <LOQ
Concentration in the receptor chamber, Apical-Basolateral Flux (Caco-2 cell monolayer [3]; 30 min): not detected
Concentration in the receptor chamber, Apical-Basolateral Flux (Caco-2 cell monolayer [3]; 60 min): not detected
Concentration in the receptor chamber, Apical-Basolateral Flux (Caco-2 cell monolayer [3]; 90 min): not detected
Concentration in the receptor chamber, Apical-Basolateral Flux (Caco-2 cell monolayer [3]; 120 min): <LOQ
Absorption across the Caco-2 intestinal barrier model (in words) (Caco-2 cell monolayer [3]): lesser extent
Compound: O=C(O)[C@H]1O[C@@H](Oc2c(-c3ccc(O)c(O)c3)oc3cc(O)cc(O)c3c2=O)[C@H](O)[C@@H](O)[C@@H]1O [Quercetin-3-glucuronide]

Compound detected in transport medium, Bas-Ap (Caco-2 cell monolayer [1]): +
Compound: Methylepigallocatechin

Compound detected in transport medium, Ap-Bas (Caco-2 cell monolayer [1]; apical to basolateral): +
Compound detected in transport medium, Bas-Ap (Caco-2 cell monolayer [1]): +
Compound detected in transport medium, Ap-Bas (Caco-2 cell monolayer [2]; apical to basolateral): +
Compound detected in transport medium, Bas-Ap (Caco-2 cell monolayer [2]; basolateral to apical): +
Concentration in the receptor chamber, Basolateral-Apical Flux (Caco-2 cell monolayer [3]): 1.35 ± 0.04 µg/mL
Concentration in the receptor chamber, Apical-Basolateral Flux (Caco-2 cell monolayer [3]; 30 min): 0.69 ± 0.02 µg/mL
Concentration in the receptor chamber, Apical-Basolateral Flux (Caco-2 cell monolayer [3]; 60 min): 2.3 ± 0.2 µg/mL
Concentration in the receptor chamber, Apical-Basolateral Flux (Caco-2 cell monolayer [3]; 90 min): 4.2 ± 0.5 µg/mL
Concentration in the receptor chamber, Apical-Basolateral Flux (Caco-2 cell monolayer [3]; 120 min): 6.6 ± 0.8 µg/mL
Absorption across the Caco-2 intestinal barrier model (in words) (Caco-2 cell monolayer [3]): significant absorption
Compound: COc1cc(/C=C/C(=O)NCCc2ccc(O)cc2)ccc1O [N-feruloyltyramine]

Compound detected in cytoplasm, Ap-Bas (Caco-2 cell monolayer [1]; [4]): +
Compound detected in membrane, Ap-Bas (Caco-2 cell monolayer [1]; [6]): +
Compound detected in transport medium, Ap-Bas (Caco-2 cell monolayer [1]; apical to basolateral): +
Compound detected in transport medium, Bas-Ap (Caco-2 cell monolayer [1]): +
Compound detected in cytoplasm, Ap-Bas (Caco-2 cell monolayer [2]; [4]): +
Concentration in the receptor chamber, Basolateral-Apical Flux (Caco-2 cell monolayer [3]): 1.1 ± 0.4 µg/mL
Concentration in the receptor chamber, Apical-Basolateral Flux (Caco-2 cell monolayer [3]; 30 min): 0.28 ± 0.02 µg/mL
Concentration in the receptor chamber, Apical-Basolateral Flux (Caco-2 cell monolayer [3]; 60 min): 0.49 ± 0.03 µg/mL
Concentration in the receptor chamber, Apical-Basolateral Flux (Caco-2 cell monolayer [3]; 90 min): 1.33 ± 0.02 µg/mL
Concentration in the receptor chamber, Apical-Basolateral Flux (Caco-2 cell monolayer [3]; 120 min): 1.32 ± 0.01 µg/mL
Time at which maximum permeation / maximum concentration was reached (Caco-2 cell monolayer [3]; both flux directions, sampling at 30, 60, 90, 120 min): 90 min
Final concentration in the basolateral-apical flux relative to the opposite flux (Caco-2 cell monolayer [3]; end of assay): around five-fold
Absorption across the Caco-2 intestinal barrier model (in words) (Caco-2 cell monolayer [3]): significant absorption
Compound: O=c1c(O)c(-c2ccc(O)c(O)c2)oc2cc(O)cc(O)c12 [Quercetin]
